Measurements published in patent publication US20220218664A1, “DRUG AND METHOD FOR TREATING OR PREVENTING COMPLICATIONS FROM DIABETES, USING SAID DRUG” (TMS Co., Ltd., priority 2019, published 2022).
Values joined by “and” are separate entries in the source; they are usually repeats but may differ in a detail not shown here. Identical values can stand only once.

What was measured:
Format in all cases: in vivo, C57BL/6J male mice
[1] = system: streptozotocin-induced diabetic mice; assay: Hot plate test: evaluating thermal stimulus
Method: (§1) 9-week-old C57BL/6J male mice were purchased and familiarized with an animal facility for 1 week. 200 mg/kg of streptozotocin (streptozotocin; STZ) was administered […] into the peritoneal cavity of 10-week-old mice to prepare streptozotocin-induced diabetic mice (hereinafter also referred to as “STZ administration week 0”). One week after the administration of streptozotocin, blood was collected from the tail vein of the mice, and the blood glucose level (BS) was measured using an automatic blood glucose measuring device (product name: Medisafe (trademark) Mini GR-102, made by Terumo (Co)). Mice having a blood glucose level of 400 mg/dL or more were determined to be diabetic mice.
(§2) The SMTP-44D groups, the edaravone group, and the pregabalin group were administered SMTP-44D (0.3 mg/kg, 3 mg/kg, or 30 mg/kg doses, respectively), edaravone (10 mg/kg dose), or pregabalin (10 mg/kg dose) into the peritoneal cavity once a day for 3 consecutive weeks from the day following the first week to the fourth week after STZ administration.
The above-mentioned STZ group, SMTP-44D groups, edaravone group, pregabalin group, and control group mice were put in grid-like boxes, respectively, and were left for 30 minutes. After having been left, an acrylic disc (diameter: 20 cm; height (that is, thickness of the acrylic disc): […]) was placed on an EC hot plate (model number: EC1200) maintained at 49 to 50° C., and the mice were put on the acrylic disc. The measurements were started after the mice landed on the EC hot plate. The times from the mice landing to their action to jump or lick their hind legs were evaluated as thermal thresholds (seconds: s). Note, to avoid burns on their plantae, the measurements were ceased 30 seconds after beginning. The measurements were conducted three times at 30-minute intervals. A mean value of three thermal thresholds (seconds: s) was calculated for 1 mouse, and then a mean value of the 12 mice for the respective groups was found.

[2] = system: streptozotocin-induced diabetic mice; assay: Sciatic nerve blood flow; details: 4th week
Method: as §1, §2
(§3) Sciatic nerves of the above-mentioned STZ group, SMTP-44D groups, edaravone group, pregabalin group, and control group mice on the 4th week were exposed under isoflurane anesthesia, and then, using the full-field laser perfusion imager, their sciatic nerve blood flows (perfusion unit: PU) were measured. After the sciatic nerve blood flows were measured, a voltage was output from a PowerLab through the […] to impart an electrical stimulus to the sciatic nerves using needle electrodes. The electrical stimulus went through the Analog Stimulus Isolator via recording electrodes attached to the gastrocnemius and was input into the PowerLab, and thus neuromuscular function response curves were measured. The sciatic nerves were stimulated between two points at 8-mm intervals. The sciatic nerve conduction velocity (m/s) was calculated by dividing the […]. The sciatic nerve blood flow and sciatic nerve conduction velocity were measured using a Hot-1 small-sized heating controller and small-sized body temperature retention device (model number: […]-1), maintaining the rectal temperature at 37° C. The measurement results are described in Table 11.

[3] = system: streptozotocin-induced diabetic mice; assay: Sciatic nerve conduction velocity; details: 4th week
Method: as §1, §2, §3

[4] = system: streptozotocin-induced diabetic mice; assay: Thickness and G-ratio of myelin in the sciatic nerve; details: 4th week
Method: as §1, §2
The above-mentioned STZ group, SMTP-44D (30 mg/kg) group, edaravone group, pregabalin group, and control group mice in the 4th week were dissected to remove the sciatic nerves. The sciatic nerves were fixed using neutral buffered formalin and embedded using an Epon resin, and then semi-thin segments were formed and dyed using toluidine blue. The cross sections of the sciatic nerves in the respective specimens were examined using a microscope equipped with a digital camera at 400× magnification. The thickness of myelin ((diameter of axon including myelin diameter of axon)/2) and G-ratio (diameter of axon/diameter of axon including myelin) were measured.

malondialdehyde: MDA = assay: Oxidative stress (MDA, TBARS assay) in sciatic nerve; details: 4th week
Method: as §1, §2
The sciatic nerves of the above-mentioned STZ group, SMTP-44D group (30 mg/kg), edaravone group, pregabalin group, and control group mice in the 4th week were homogenized using an RIPA buffer containing a protease inhibitor cocktail. Moreover, centrifugation was conducted at 4° C. for 15 minutes at 1600 g, and the supernatant was collected and used for measuring MDA (μM) and total protein concentration (μg/mL), respectively. MDA was measured using a TBARS Assay Kit. The total protein concentration was measured using a Pierce (Trademark) BCA Protein Assay Kit. Oxidative stress levels (nmol/mg protein) were calculated from MDA (μM) and the total protein concentration (μg/mL).

TNF-α = assay: Inflammatory cytokine TNF-α in sciatic nerve (ELISA); details: 4th week
Method: as §1, §2
The sciatic nerves of the above-mentioned STZ group, SMTP-44D group (30 mg/kg), edaravone group, pregabalin group, and control group mice on the 4th week were homogenized using the RIPA buffer containing a protease inhibitor cocktail. Moreover, centrifugation was conducted at 4° C. for 15 minutes at 10,000 g, and the supernatant was collected and used for measuring TNF-α concentration (pg/mL), IL-1β concentration (pg/mL), IL-6 concentration (pg/mL), and total protein concentration (μg/mL), respectively. An ELISA assay kit was used for the TNF-α, IL-1β, and IL-6 concentrations. The total protein concentration was measured by using a Pierce (trademark) BCA Protein Assay Kit. The inflammatory cytokine level (pg/mg protein) in the total protein was calculated from the TNF-α concentration (pg/mL), IL-1β concentration (pg/mL), and IL-6 concentration (pg/mL), and total protein concentration (μg/mL).

[5] = 10 mg/kg i.p. once a day, 0th week (before dosing)
[6] = 10 mg/kg i.p. once a day, 1st week (before dosing)
[7] = 10 mg/kg i.p. once a day, 2nd week
[8] = 10 mg/kg i.p. once a day, 3rd week
[9] = 10 mg/kg i.p. once a day, 4th week
[10] = 10 mg/kg i.p. once a day, listed as pregabalin
[11] = 10 mg/kg i.p. once a day, listed as Preaabalin
[12] = 10 mg/kg i.p. once a day, listed as edaravone

Structure (SMILES): CC(C)C[C@H](CN)CC(=O)O [Pregabalin, pregabalin]
- Hot plate test thermal threshold [1, 5]: 22.2 ± 0.8 s
- Hot plate test thermal threshold ([1]; 10 mg/kg i.p. once a day, 0th week (before dosing), listed as pregabalin): 22.2 ± 0.8 s
- Hot plate test thermal threshold [1, 6]: 15.7 ± 0.7 s
- Hot plate test thermal threshold ([1]; 10 mg/kg i.p. once a day, 1st week (before dosing), listed as pregabalin): 15.7 ± 0.7 s
- Hot plate test thermal threshold [1, 7]: 17.3 ± 1.1 s
- Hot plate test thermal threshold ([1]; 10 mg/kg i.p. once a day, 2nd week, listed as pregabalin): 17.3 ± 1.1 s
- Hot plate test thermal threshold [1, 8]: 17.7 ± 0.9 s
- Hot plate test thermal threshold ([1]; 10 mg/kg i.p. once a day, 3rd week, listed as pregabalin): 17.7 ± 0.9 s
- Hot plate test thermal threshold [1, 9]: 17.9 ± 1.1 s
- Hot plate test thermal threshold ([1]; 10 mg/kg i.p. once a day, 4th week, listed as pregabalin): 17.9 ± 1.1 s
- Sciatic nerve blood flow ([2]; 10 mg/kg i.p. once a day): 1114.1 ± 27.5 PU
- Sciatic nerve blood flow [2, 10]: 1114.1±27.5 PU
- Sciatic nerve conduction velocity ([3]; 10 mg/kg i.p. once a day): 55.9 ± 1.4 m/s
- Sciatic nerve conduction velocity [3, 10]: 55.9±1.4 m/s
- G-ratio [4, 11]: 0.665 ± 0.006
- Thickness of myelin [4, 11]: 1.29 ± 0.03 μm
- G-ratio [4, 10]: 0.665±0.006
- Thickness of myelin [4, 10]: 1.29±0.03 μm
- MDA (oxidative stress) (malondialdehyde: MDA; 10 mg/kg i.p. once a day): 4.02 ± 0.59 nmol/mg protein
- MDA (oxidative stress) (malondialdehyde: MDA; [10]): 4.02±0.59 nmol/mg protein
- TNF-α (TNF-α; 10 mg/kg i.p. once a day): 14.53 ± 1.41 pg/mg protein
- TNF-α (TNF-α; [10]): 14.53±1.41 pg/mg protein

Structure (SMILES): CC1=NN(c2ccccc2)C(=O)C1 [Edaravone, edaravone]
- Hot plate test thermal threshold [1, 5]: 20.8 ± 0.5 s
- Hot plate test thermal threshold ([1]; 10 mg/kg i.p. once a day, 0th week (before dosing), listed as edaravone): 20.8 ± 0.5 s
- Hot plate test thermal threshold [1, 6]: 15.7 ± 0.8 s
- Hot plate test thermal threshold ([1]; 10 mg/kg i.p. once a day, 1st week (before dosing), listed as edaravone): 15.7 ± 0.8 s
- Hot plate test thermal threshold [1, 7]: 15.5 ± 1.2 s
- Hot plate test thermal threshold ([1]; 10 mg/kg i.p. once a day, 2nd week, listed as edaravone): 15.5 ± 1.2 s
- Hot plate test thermal threshold [1, 8]: 15.4 ± 0.9 s
- Hot plate test thermal threshold ([1]; 10 mg/kg i.p. once a day, 3rd week, listed as edaravone): 15.4 ± 0.9 s
- Hot plate test thermal threshold [1, 9]: 16.0 ± 0.8 s
- Hot plate test thermal threshold ([1]; 10 mg/kg i.p. once a day, 4th week, listed as edaravone): 16.0 ± 0.8 s
- Sciatic nerve blood flow ([2]; 10 mg/kg i.p. once a day): 1336.1 ± 46.7 PU
- Sciatic nerve blood flow [2, 12]: 1336.1±46.7 PU
- Sciatic nerve conduction velocity ([3]; 10 mg/kg i.p. once a day): 63.6 ± 1.8 m/s
- Sciatic nerve conduction velocity [3, 12]: 63.6±1.8 m/s
- G-ratio ([4]; 10 mg/kg i.p. once a day): 0.619 ± 0.005
- Thickness of myelin ([4]; 10 mg/kg i.p. once a day): 1.42 ± 0.02 μm
- G-ratio [4, 12]: 0.619±0.005
- Thickness of myelin [4, 12]: 1.42±0.02 μm
- MDA (oxidative stress) (malondialdehyde: MDA; 10 mg/kg i.p. once a day): 2.98 ± 0.39 nmol/mg protein
- MDA (oxidative stress) (malondialdehyde: MDA; [12]): 2.98±0.39 nmol/mg protein
- TNF-α (TNF-α; 10 mg/kg i.p. once a day): 12.45 ± 2.06 pg/mg protein
- TNF-α (TNF-α; [12]): 12.45±2.06 pg/mg protein

Structure (SMILES): CC(C)=CCCC(C)=CCCC1(C)Oc2c(c(O)cc3c2CN(C(C(=O)O)c2ccc(O)cc2)C3=O)CC1O (centres unmarked) [SMTP-44D]
- Hot plate test thermal threshold ([1]; 0.3 mg/kg i.p. once a day, 0th week (before dosing)): 22.8 ± 1.2 s
- Hot plate test thermal threshold ([1]; 0.3 mg/kg i.p. once a day, 1st week (before dosing)): 14.3 ± 1.0 s
- Hot plate test thermal threshold ([1]; 0.3 mg/kg i.p. once a day, 2nd week): 14.0 ± 1.4 s
- Hot plate test thermal threshold ([1]; 0.3 mg/kg i.p. once a day, 3rd week): 13.3 ± 1.3 s
- Hot plate test thermal threshold ([1]; 0.3 mg/kg i.p. once a day, 4th week): 13.1 ± 0.6 s
- Hot plate test thermal threshold ([1]; 3 mg/kg i.p. once a day, 0th week (before dosing)): 21.0 ± 1.3 s
- Hot plate test thermal threshold ([1]; 3 mg/kg i.p. once a day, 1st week (before dosing)): 14.6 ± 1.4 s
- Hot plate test thermal threshold ([1]; 3 mg/kg i.p. once a day, 2nd week): 15.4 ± 0.8 s
- Hot plate test thermal threshold ([1]; 3 mg/kg i.p. once a day, 3rd week): 15.1 ± 1.1 s
- Hot plate test thermal threshold ([1]; 3 mg/kg i.p. once a day, 4th week): 15.1 ± 1.3 s
- Hot plate test thermal threshold ([1]; 30 mg/kg i.p. once a day, 0th week (before dosing)): 21.3 ± 0.4 s
- Hot plate test thermal threshold ([1]; 30 mg/kg i.p. once a day, 1st week (before dosing)): 15.0 ± 0.7 s
- Hot plate test thermal threshold ([1]; 30 mg/kg i.p. once a day, 2nd week): 18.0 ± 1.2 s
- Hot plate test thermal threshold ([1]; 30 mg/kg i.p. once a day, 3rd week): 18.4 ± 1.3 s
- Hot plate test thermal threshold ([1]; 30 mg/kg i.p. once a day, 4th week): 18.2 ± 1.1 s
- Sciatic nerve blood flow ([2]; 0.3 mg/kg i.p. once a day): 1116.9±30.4 PU
- Sciatic nerve blood flow ([2]; 3 mg/kg i.p. once a day): 1187.1±31.4 PU
- Sciatic nerve blood flow ([2]; 30 mg/kg i.p. once a day): 1461.0±55.0 PU
- Sciatic nerve conduction velocity ([3]; 0.3 mg/kg i.p. once a day): 54.9±1.2 m/s
- Sciatic nerve conduction velocity ([3]; 3 mg/kg i.p. once a day): 56.9±2.8 m/s and 56.9 ± 28 m/s
- Sciatic nerve conduction velocity ([3]; 30 mg/kg i.p. once a day): 63.8±2.0 m/s
- Thickness of myelin ([4]; 30 mg/kg i.p. once a day): 1.58±0.02 μm
- MDA (oxidative stress) (malondialdehyde: MDA; 30 mg/kg i.p. once a day): 1.98±0.51 nmol/mg protein
- TNF-α (TNF-α; 30 mg/kg i.p. once a day): 15.22±2.51 pg/mg protein
